In article PMC10461100, “Transcuticular calcium imaging as a tool for the functional study of insect odorant receptors” (Frontiers in Molecular Neuroscience, 2023):

Experiments:
SlitOR29 = tested on: T1, SlitOR29; assay: transcuticular calcium imaging (GCaMP6s), dose-response; design: species or system Spodoptera littoralis; conditions: volatile stimulus; dose loaded on filter paper (in mineral oil), not a concentration; in vivo fly antenna; 1 s puff
T1 construct: full-length UAS transgene in Drosophila melanogaster ab3A basiconic neurons in place of DmelOR22a/b; endogenous Drosophila Orco; GCaMP6s reporter co-expressed; with Odorant receptor coreceptor (endogenous, Drosophila melanogaster)

SlitOR6 = target: T2, SlitOR6 (Spodoptera littoralis, UniProt I6LJY9); assay: transcuticular calcium imaging (GCaMP6m), dose-response; conditions: volatile stimulus; dose loaded on filter paper (in hexane), not a concentration; in vivo fly antenna; 1 s puff
T2 construct: gene OR6; full-length UAS transgene in Drosophila melanogaster at1 trichoid neurons in place of DmelOR67d; endogenous Drosophila Orco; GCaMP6m reporter co-expressed; with Odorant receptor coreceptor (endogenous, Drosophila melanogaster)
T2 sequence (I6LJY9 1-432): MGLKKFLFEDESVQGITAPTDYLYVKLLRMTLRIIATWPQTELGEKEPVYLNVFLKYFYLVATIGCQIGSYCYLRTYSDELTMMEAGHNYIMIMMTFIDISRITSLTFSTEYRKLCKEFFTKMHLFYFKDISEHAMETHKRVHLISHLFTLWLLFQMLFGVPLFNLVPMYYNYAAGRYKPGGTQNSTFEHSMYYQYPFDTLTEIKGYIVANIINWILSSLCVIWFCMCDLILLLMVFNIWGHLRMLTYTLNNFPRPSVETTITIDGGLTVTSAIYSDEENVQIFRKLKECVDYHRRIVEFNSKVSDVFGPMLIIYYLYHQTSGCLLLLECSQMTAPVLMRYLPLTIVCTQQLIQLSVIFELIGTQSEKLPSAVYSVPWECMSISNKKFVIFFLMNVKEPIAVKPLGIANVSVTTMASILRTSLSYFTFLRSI
T2 sequence (Q9VNB5 1-486 partner): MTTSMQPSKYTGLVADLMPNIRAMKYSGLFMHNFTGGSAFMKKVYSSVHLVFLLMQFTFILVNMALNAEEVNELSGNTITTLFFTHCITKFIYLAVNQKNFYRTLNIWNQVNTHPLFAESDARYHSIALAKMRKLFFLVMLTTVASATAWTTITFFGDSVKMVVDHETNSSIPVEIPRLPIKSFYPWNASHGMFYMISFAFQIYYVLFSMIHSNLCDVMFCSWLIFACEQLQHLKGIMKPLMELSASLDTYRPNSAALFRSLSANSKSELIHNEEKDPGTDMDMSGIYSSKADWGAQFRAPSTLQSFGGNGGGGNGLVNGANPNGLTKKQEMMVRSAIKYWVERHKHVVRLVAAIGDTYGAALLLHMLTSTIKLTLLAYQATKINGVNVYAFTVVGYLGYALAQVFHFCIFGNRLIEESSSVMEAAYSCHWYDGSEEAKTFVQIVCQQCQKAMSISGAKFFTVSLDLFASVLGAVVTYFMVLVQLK

CC/C=C\CCOC(C)=O [(Z)-3-hexenyl acetate]
EC50 (SlitOR29): 11.52 ± 0.70 µg

C=C/C(C)=C/CC=C(C)C [(E)-ocimene]
EC50 (SlitOR29): 1.27 ± 0.37 µg

C/C=C/C/C=C\CCCCCCCCOC(C)=O [(Z,E)-9,12-tetradecadienyl acetate]
EC50 (SlitOR6): 0.96 ± 0.14 µg
